Reference: patent US9329192B2, “Polymer-coupled peptidases” (SENOVA GESELLSCHAFT FUR BIOWISSENSCHAFT UND TECHNIK MBH, priority 2010, dated 2016)

Test system: heparin in combination with antithrombin of plasma
Assay: Influence of heparin in plasma on amidolytic activity, chromogenic thrombin assay
Format: biochemical
Details: increasing concentrations of heparin in citrated plasma, substrate H-D-Chg-Ala-Arg-pNA
Description: The influence of heparin (Sigma, H-3393) on the amidolytic activity of PEG 5 kD-thrombin conjugate in plasma was compared with its influence on the amidolytic activity of unmodified thrombin using the chromogenic assay for quantitative determination of direct thrombin inhibitors (Example 5): 15 μl of a plasma sample (citrated plasma) were added to 50 μl chromogenic substrate (H-D-Chg-Ala-Arg-pNA, JenAffin GmbH, 3 mM in 0.05M Tris/HCl, 0.1M NaCl, pH 8.0 at 37° C.). Chromogenic reaction was started by addition of 100 μl PEG 5 kD-thrombin conjugate or thrombin, respectively. Increase in optical density (release of p-nitroaniline by cleavage of the chromogenic substrate) was recorded at 405 nm using the measurement device TC4+ (TECO GmbH).

Substance | influence of heparin on amidolytic activity
PEG 5 kD-thrombin conjugate: bovine factor IIa (thrombin) coupled with methoxy polyethylene glycol (PEG)-5,000 p-nitrophenyl carbonate | does not influence amidolytic activity
thrombin: bovine factor IIa (thrombin, EC 3.4.21.5, Kordia), unmodified | inhibit amidolytic activity
